The target in series [1] is CDKN2B-AS1. As to the kind of experiment: HEK293-TLR7, 100 nM ASO, then resiquimod.
Series [2] addresses CDKN2B-AS1. As to the kind of experiment: HEK293-TLR8, 100 nM ASO, then resiquimod.

HELM strings list units from the 5' end as sugar, base in round brackets, then linkage (d deoxyribose, r ribose, m 2'-O-methyl, p phosphodiester). [sp] = phosphorothioate linkage

The substance “RNA1{m(G)[sp].m(C)[sp].m(A)[sp].m(G)[sp].m(U)[sp].d(C)[sp].d(T)[sp].d(C)[sp].d(C)[sp].d(A)[sp].d(T)[sp].d(G)[sp].d(T)[sp].d(C)[sp].d(C)[sp].m(C)[sp].m(A)[sp].m(G)[sp].m(G)[sp].m(C)}$$$$” had a TLR7 signal (NF-kB luciferase) (% of resiquimod alone) in series [1] of 20.3. Further, the TLR8 potentiation (NF-kB luciferase) (fold of resiquimod alone) in series [2] turned out to be 1.79.
With “RNA1{m(C)[sp].m(A)[sp].m(G)[sp].m(G)[sp].m(C)[sp].d(C)[sp].d(T)[sp].d(C)[sp].d(C)[sp].d(A)[sp].d(G)[sp].d(T)[sp].d(G)[sp].d(T)[sp].d(C)[sp].m(U)[sp].m(U)[sp].m(C)[sp].m(U)[sp].m(C)}$$$$”, the TLR7 signal (NF-kB luciferase) (% of resiquimod alone) in series [1] is 54.1. For the same substance, the TLR8 potentiation (NF-kB luciferase) (fold of resiquimod alone) in series [2] amounted to 2.02.
For “RNA1{m(C)[sp].m(A)[sp].m(G)[sp].m(U)[sp].m(C)[sp].d(T)[sp].d(C)[sp].d(C)[sp].d(A)[sp].d(T)[sp].d(G)[sp].d(T)[sp].d(C)[sp].d(C)[sp].d(C)[sp].m(A)[sp].m(G)[sp].m(G)[sp].m(C)[sp].m(C)}$$$$”, the TLR7 signal (NF-kB luciferase) (% of resiquimod alone) in series [1] is 47.8. Moreover, the TLR8 potentiation (NF-kB luciferase) (fold of resiquimod alone) in series [2] worked out at 2.73.
The substance “RNA1{m(A)[sp].m(G)[sp].m(A)[sp].m(A)[sp].m(A)[sp].d(G)[sp].d(A)[sp].d(A)[sp].d(G)[sp].d(C)[sp].d(A)[sp].d(A)[sp].d(A)[sp].d(G)[sp].d(A)[sp].m(U)[sp].m(U)[sp].m(C)[sp].m(A)[sp].m(A)}$$$$” gave a TLR7 signal (NF-kB luciferase) (% of resiquimod alone) in series [1] of 43. For the same substance, in series [2], the TLR8 potentiation (NF-kB luciferase) (fold of resiquimod alone) amounted to 1.96.
For “RNA1{m(U)[sp].m(U)[sp].m(G)[sp].m(U)[sp].m(G)[sp].d(A)[sp].d(A)[sp].d(A)[sp].d(A)[sp].d(G)[sp].d(A)[sp].d(T)[sp].d(T)[sp].d(A)[sp].d(T)[sp].m(C)[sp].m(U)[sp].m(U)[sp].m(C)[sp].m(U)}$$$$”, in that order: 35 and 1.05.
Turning to “RNA1{m(C)[sp].m(U)[sp].m(U)[sp].m(G)[sp].m(U)[sp].d(G)[sp].d(A)[sp].d(A)[sp].d(A)[sp].d(A)[sp].d(G)[sp].d(A)[sp].d(T)[sp].d(T)[sp].d(A)[sp].m(U)[sp].m(C)[sp].m(U)[sp].m(U)[sp].m(C)}$$$$”, the TLR7 signal (NF-kB luciferase) (% of resiquimod alone) in series [1] turned out to be 85.3. Besides, in series [2], the TLR8 potentiation (NF-kB luciferase) (fold of resiquimod alone) was 3.89.
For “RNA1{m(G)[sp].m(A)[sp].m(G)[sp].m(U)[sp].m(U)[sp].d(C)[sp].d(T)[sp].d(T)[sp].d(C)[sp].d(G)[sp].d(T)[sp].d(A)[sp].d(G)[sp].d(G)[sp].d(C)[sp].m(U)[sp].m(U)[sp].m(C)[sp].m(U)[sp].m(G)}$$$$”, in that order: 25.9 and 0.96.
As to “RNA1{m(C)[sp].m(U)[sp].m(C)[sp].m(U)[sp].m(C)[sp].d(T)[sp].d(T)[sp].d(T)[sp].d(C)[sp].d(T)[sp].d(G)[sp].d(T)[sp].d(G)[sp].d(G)[sp].d(T)[sp].m(U)[sp].m(U)[sp].m(C)[sp].m(U)[sp].m(C)}$$$$”, the TLR7 signal (NF-kB luciferase) (% of resiquimod alone) in series [1] was determined as 92.3. The TLR8 potentiation (NF-kB luciferase) (fold of resiquimod alone) in series [2] stood at 3.82.
“RNA1{m(A)[sp].m(A)[sp].m(A)[sp].m(G)[sp].m(A)[sp].d(T)[sp].d(T)[sp].d(A)[sp].d(T)[sp].d(C)[sp].d(T)[sp].d(T)[sp].d(C)[sp].d(T)[sp].d(T)[sp].m(U)[sp].m(U)[sp].m(A)[sp].m(A)[sp].m(U)}$$$$” had a TLR7 signal (NF-kB luciferase) (% of resiquimod alone) in series [1] of 49.3. Also, in series [2], the TLR8 potentiation (NF-kB luciferase) (fold of resiquimod alone) worked out at 2.96.
In the same order, the values of “RNA1{m(A)[sp].m(G)[sp].m(A)[sp].m(U)[sp].m(U)[sp].d(A)[sp].d(T)[sp].d(C)[sp].d(T)[sp].d(T)[sp].d(C)[sp].d(T)[sp].d(T)[sp].d(T)[sp].d(T)[sp].m(A)[sp].m(A)[sp].m(U)[sp].m(U)[sp].m(U)}$$$$” are 37.1 and 3.02.
Turning to “RNA1{m(C)[sp].m(U)[sp].m(U)[sp].m(C)[sp].m(A)[sp].d(C)[sp].d(A)[sp].d(T)[sp].d(C)[sp].d(C)[sp].d(A)[sp].d(A)[sp].d(G)[sp].d(A)[sp].d(C)[sp].m(A)[sp].m(G)[sp].m(C)[sp].m(A)[sp].m(A)}$$$$”, the TLR7 signal (NF-kB luciferase) (% of resiquimod alone) in series [1] was found to be 55. The TLR8 potentiation (NF-kB luciferase) (fold of resiquimod alone) in series [2] was 2.26.
In series [1], “RNA1{m(C)[sp].m(A)[sp].m(G)[sp].m(U)[sp].m(G)[sp].d(T)[sp].d(T)[sp].d(T)[sp].d(T)[sp].d(T)[sp].d(A)[sp].d(A)[sp].d(T)[sp].d(T)[sp].d(T)[sp].m(U)[sp].m(G)[sp].m(U)[sp].m(A)[sp].m(G)}$$$$” gave a TLR7 signal (NF-kB luciferase) (% of resiquimod alone) of 62.7. Besides, the TLR8 potentiation (NF-kB luciferase) (fold of resiquimod alone) in series [2] was 3.18.
In the same order, the values of “RNA1{m(U)[sp].m(G)[sp].m(U)[sp].m(G)[sp].m(A)[sp].d(A)[sp].d(A)[sp].d(A)[sp].d(G)[sp].d(A)[sp].d(T)[sp].d(T)[sp].d(A)[sp].d(T)[sp].d(C)[sp].m(U)[sp].m(U)[sp].m(C)[sp].m(U)[sp].m(U)}$$$$” are 34.5 and 2.79.
With “RNA1{m(A)[sp].m(A)[sp].m(G)[sp].m(G)[sp].m(U)[sp].d(G)[sp].d(G)[sp].d(C)[sp].d(C)[sp].d(A)[sp].d(C)[sp].d(A)[sp].d(G)[sp].d(G)[sp].d(C)[sp].m(A)[sp].m(A)[sp].m(C)[sp].m(G)[sp].m(U)}$$$$”, in series [1], the TLR7 signal (NF-kB luciferase) (% of resiquimod alone) is 57.9. Moreover, in series [2], the TLR8 potentiation (NF-kB luciferase) (fold of resiquimod alone) stood at 0.58.

The record behind these values is the OligoGym collection.
